{"source": "ChEMBL document CHEMBL1144147", "about": "“New annonaceous acetogenins from Rollinia mucosa” (J Nat Prod, 1999)", "assay": "Cytotoxicity against human HepG2(2.2.15) cells after 3 day", "type": "functional, cell-based", "settings": "HepG2 2.2.15, 72 h", "data": [{"smiles": "COc1cccc2c1C(=O)c1c(O)c3c(c(O)c1C2=O)C[C@@](O)(C(=O)CO)C[C@@H]3O[C@H]1C[C@H](N)[C@H](O)[C@H](C)O1", "note": "[DOXORUBICIN]", "values": [{"measurement": "IC50", "value": 0.45, "unit": "µg/mL"}]}]}
